Assay results taken from patent US20260028355A1, “PROTEOLYSIS TARGETING CHIMERA (PROTAC) COMPOSITIONS USING UBIQUITIN CONJUGATING ENZYME LIGANDS” (Berg LLC, priority 2022, published 2026).

Experiments:
UBE2K = biological target: T1, UBE2K (Homo sapiens, UniProt P61086); experiment: UBE2K dissociation constant (Kd) by surface plasmon resonance (Biacore S200); type: binding; conditions: SPR, steady state fitting; immobilized biotinylated UBE2K-Ub complex and UBE2K wild type
T1 sequence (P61086 1-200): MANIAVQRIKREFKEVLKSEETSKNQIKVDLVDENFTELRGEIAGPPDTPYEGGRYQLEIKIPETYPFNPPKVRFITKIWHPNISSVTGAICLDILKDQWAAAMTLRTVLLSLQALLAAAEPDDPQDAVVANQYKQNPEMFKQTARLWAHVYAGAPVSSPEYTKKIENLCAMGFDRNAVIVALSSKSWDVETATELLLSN
Procedure: UBE2K Dissociation Constant (Kd) of E2-binder Compound 1
UBE2K Ligand binding to mono-Ub UBE2K and UBE2K was measured by Surface plasma resonance using a Biacore SPR S200 instrument. The proteins and ligands were prepared for experimental measurement as described below.
Avi tagged proteins were biotinylated and were immobilized on a Series S/Sensor Chip SA. Proteins were immobilized based on their molar weight as follows -Biotinylated Avi peptide (1000 μM), Biotinylated UBE2K-Ub Complex (12 μM) and Biotinylated UBE2K Wild Type (3 μM). Proteins were immobilized using a buffer comprised of 1X HBS-N Buffer+0.05% Tween 20 (250 mL). A stock of Compound 1 was prepared in affinity buffer comprised of 1% DMSO, 1×PBS-P+Buffer. Further dilution of stock were prepared in 0% DMSO, 1×PBS-P+Buffer or 3% DMSO, 1×PBS-P+Buffer and were used as running buffers. Compound 1 was prepared as 2 mM or 750 μM stocks in the buffers described above. Titration was performed using the Liquid handler/TECAN EVO (WALL-E) as follows. 1 or 2, 96 deep well plates (1.2 mL) were used for performing titrations-Aliquoted 3% DMSO, 1×PBS-P+buffer. 1:2 dilution was performed by WALL-E (250 μL+250 μL) for the rest of titrations till 3.12 μM. The titrations of Compound 1 was then transferred to 384 deep well plate in duplicates side-by-side (125 μL) each. […]

UBE2K-Ub = experiment: E2 binding capacity of PROTACs (FIG. 1)
Description: UBE2K binder Compound 1 was used as a precursor to generate PROTAC Compounds 2, 6, 7, and 9. See experimental section above. Each of these PROTACs were first tested for their ability to bind the E2 enzyme UBE2K.

BRD4 = biological target: T2, BRD4 (Homo sapiens, UniProt O60885); experiment: Dose dependent degradation of BRD4 in HeLa cells (FIG. 2); type: cell-based
T2 construct: dose dependent degradation of BRD4 in HeLa cells; endogenous in cells; host or cells: HeLa
Description: FIG. 2 illustrates the dose dependent degradation of BRD4 in HeLa cells using E2 binding PROTACS based on the present disclosure.
Dose Dependent Degradation of BRD4 in HeLa Cells
Compounds 6, 7, and 9 were then investigated for their ability to degrade BRD4.

Row | SMILES | loss of BRD4 (BRD4) | other results
1 | O=C(NCc1cc2c3ccccc3nc(S)n2n1)c1ccccc1OC(F)(F)F [Compound 1, N-((5-thioxo-5,6-dihydropyrazolo[1,5-c]quinazolin-2-yl)methyl)-2-(trifluoromethoxy)benzamide] |  | Kd (UBE2K): 2110 nM
2 | Cc1sc2c(c1C)C(c1ccc(Cl)cc1)=N[C@@H](CC(=O)NCCSc1nc3ccccc3c3cc(CNC(=O)c4ccccc4OC(F)(F)F)nn13)c1nnc(C)n1-2 [Compound 2, (S)—N-((5-((2-(2-(4-(4-chlorophenyl)-2,3,9-trimethyl-6H-thieno[3,2-f][1,2,4]triazolo[4,3-a][1,4]diazepin-6-yl)acetamido)ethyl)thio)pyrazolo[1,5-c]quinazolin-2-yl)methyl)-2-(trifluoromethoxy) benzamide] |  | binding to UBE2K-Ub (UBE2K-Ub): All compounds except for Compound 2 bind
3 | Cc1sc2c(c1C)C(c1ccc(Cl)cc1)=N[C@@H](CC(=O)NCCOCCNC(=O)CSc1nc3ccccc3c3cc(CNC(=O)c4ccccc4OC(F)(F)F)nn13)c1nnc(C)n1-2 [Compound 7, (S)—N-((5-((2-((2-(2-(2-(4-(4-chlorophenyl)-2,3,9-trimethyl-6H-thieno[3,2-f][1,2,4]triazolo[4,3-a][1,4]diazepin-6-yl)acetamido)ethoxy)ethyl)amino)-2-oxoethyl)thio)pyrazolo[1,5-c]quinazolin-2-yl)methyl)-2-(trifluoromethoxy)benzamide] | concentration dependent loss of BRD4 | 
4 | Cc1sc2c(c1C)C(c1ccc(Cl)cc1)=N[C@@H](CC(=O)NCCOCCOCCNC(=O)CSc1nc3ccccc3c3cc(CNC(=O)c4ccccc4OC(F)(F)F)nn13)c1nnc(C)n1-2 [Compound 9, (S)—N-((5-((14-(4-(4-chlorophenyl)-2,3,9-trimethyl-6H-thieno [3,2 f][1,2,4]triazolo [4,3-a][1,4]diazepin-6-yl)-2,13-dioxo-6,9-dioxa-3,12-diazatetradecyl)thio)pyrazolo[1,5-c]quinazolin-2-yl)methyl)-2-(trifluoromethoxy)benzamide] | concentration dependent loss of BRD4 | 
